Structures are written as SMILES. Activity calls are given as the source filed them. No rule for the calls is given here.

The experiment can be described thus: H9c2 cardiomyoblast viability modulators under 2-DG – cell-based, ATPlite luminescence, rat, set 2, myocardial damage modulator project, dose response (AID 602210). Particulars: H9c2 rat cardiomyoblasts, 2-deoxyglucose-induced death, 2 h. In general terms: Cellular ATP, detected with luciferase, serves as a proxy for viable cell number.
Turning to `Cc1ccccc1C1c2[nH]c3ccccc3c2C[C@H]2C(=O)N(c3ccccc3C(=O)NCCCN3CCOCC3)C(=O)N12` (stereo not given in full), the IC50 is 46 µM (inactive).
For the molecule `O=C(NCCN1CCN(c2ccccc2F)CC1)c1cccn2c(=O)c3ccccc3nc12`, the IC50 was 11.7 µM (inactive).
On to `COCc1c(C(=O)Nc2ccc3nc(N4CCOCC4)sc3c2)oc2ccccc12`, for which the IC50 was 15 µM (inactive).
To `COc1cc(-c2cc(C(=O)OCC(=O)NC3CC3)c3ccccc3n2)cc(OC)c1OC` belongs 13.2 µM (inactive); to `COc1ccc(-c2oc3c(OC)c(OC)c(OC)c(O)c3c(=O)c2OC)cc1OC`, > 79 µM (inactive); to `COc1cc(/C=C/c2nnc3c4ccccc4ncn23)cc(OC)c1OC`, 7.24 µM.
For the molecule `CCCOc1ccc2[nH]c(C(=O)N/N=C/c3cc(OC)c(OC)c(OC)c3)cc2c1`, the IC50 was > 79 µM (inactive).
Then `Cc1ccc(C(=O)Nc2cccc(C(F)(F)F)c2)cc1NC(=O)c1csc(-c2ccncc2)n1`, with > 79 µM (inactive); and `Cc1[nH]c2ccccc2c1/C=N/NC(=O)c1cc(-c2cccs2)[nH]n1`, with 5.8 µM; and `CCOC(=O)c1cc(-c2nnc(-c3cc(OC)c(OC)c(OC)c3)o2)c(C)nc1C`, with 3.44 µM.
For `COc1cc(-c2cc(NC(C)=O)c3ncc(-c4ccccc4)n3c2)cc(OC)c1OC`, the IC50 is > 79 µM (inactive).
Take `C[C@@H]1CN([C@H](C)CO)S(=O)(=O)c2ccc(C#Cc3ccccc3F)cc2O[C@H]1CN(C)C(=O)c1ccc2c(c1)OCO2`: the IC50 was 8.38 µM.
To `C[C@H](CO)N1C[C@H](C)[C@@H](CN(C)S(=O)(=O)c2cccs2)Oc2ccc(NC(=O)Nc3ccccc3)cc2C1=O` belongs > 79 µM (inactive); to `CCOC(=O)C1CCN(C(=O)c2ccc3c(=O)n4nc(Nc5ccccc5OC)sc4nc3c2)CC1`, 15.9 µM (inactive).
On to `COc1ccc(N/C=C(\C#N)c2nc3ccccc3n2C)c(OC)c1`, for which the IC50 is > 79 µM (inactive).
Take `CCOC(=O)c1c(C)[nH]c(O)c1C=Nc1ccc(Cl)cc1`: the IC50 was 46.7 µM (inactive).
Then `COC(=O)c1ccccc1NC(=O)c1nc2nc(C)cc(C)n2n1`, with 67.2 µM (inactive); and `COc1cccc2cc(-c3cc(=O)oc4ccc(OCC(C)=O)cc34)oc12`, with > 79 µM (inactive); and `COc1ccc(-c2cc(NC(C)=O)c3ncc(-c4ccc(OC)c(OC)c4)n3c2)cc1OC`, with 14.8 µM (inactive).
On to `Brc1ccc(-c2ccc(/C=N/Nc3nc(N4CCOCC4)nc(N4CCOCC4)n3)o2)cc1`, for which the IC50 was 5.7 µM.
Then `CCCCn1nc(NC(=O)c2cccs2)c2cc3cc(OC)ccc3nc21`, with > 79 µM (inactive); and `C[C@H](NC(=O)c1nc[nH]c1C(=O)NCC(=O)OCc1ccccc1)c1ccccc1`, with 14.3 µM (inactive).
`CCn1nc(C(=O)NNC(=O)c2cc(Cl)ccc2OC)c2ccccc2c1=O`: the IC50 is > 79 µM (inactive).
For `CC(C)(C)OC(=O)NCc1ccc(NC(=O)c2nc[nH]c2C(=O)NCCCCCCNC(=O)c2[nH]cnc2C(=O)Nc2ccc(CNC(=O)OC(C)(C)C)cc2)cc1`, the IC50 is > 79 µM (inactive).
Then `COC(=O)c1cc(NC(=O)c2cc3ccccc3o2)cc(C(=O)OC)c1`, with 23.9 µM (inactive); and `Cn1c2ccccc2c2cc(/C=N/NC(=O)c3cc(O)ccc3O)ccc21`, with > 79 µM (inactive); and `CCc1nnc(NC(=O)CCC(=O)N2CCN(C3c4ccccc4-c4ccccc43)CC2)s1`, with 29.1 µM (inactive).
Then `COc1cc2c(C#CCCO)c(-c3ccsc3)oc(=O)c2cc1OC`, with 6.34 µM; and `CC(C)N1C(=O)S/C(=C/c2ccc3c(c2)n(C)c(=O)n3C)C1=O`, with 7.32 µM.
In the case of `O=C1c2ccccc2C(=O)N1CCCCSc1nc2ccccc2c(=O)n1CCCN1CCOCC1`, the IC50 was > 79 µM (inactive).
For the molecule `Cc1ccccc1C(C(=O)NCc1ccccc1)N(Cc1ccco1)C(=O)c1ccccn1` (stereo not given), the IC50 was 45.6 µM (inactive).
To `COc1ccc(C(C(=O)NCc2ccccc2)N(Cc2ccco2)C(=O)c2snc(C(N)=O)c2N)cc1` (stereo not given) belongs 6.17 µM.
To `C[C@H](CO)N1C[C@H](C)[C@@H](CN(C)S(=O)(=O)c2ccc(F)cc2)Oc2ccc(NC(=O)Nc3ccc4c(c3)OCO4)cc2C1=O` belongs 48.8 µM (inactive); to `CCOC(=O)N1CCN(C(=O)CSc2nc3ccccc3c(=O)n2-c2ccccc2)CC1`, 34.5 µM (inactive).
Then `COc1cc(-c2nnc(-c3cc(-c4ccccc4)nc4ccccc34)o2)cc(OC)c1OC`, with 7.22 µM.
Turning to `O=C(NC1CCCCC1)C(c1ccc2ncccc2c1)N(Cc1ccccc1)C(=O)c1ccc2c(c1)OCCO2` (stereo not given), the IC50 was 29.4 µM (inactive).
For the molecule `CCOc1ccc(C(C(=O)NC2CCCC2)N(C(=O)c2snc(C(N)=O)c2N)c2cccc(O)c2)cc1` (stereo not given), the IC50 was 6.74 µM.
Then `Cc1ccc(CN(C(=O)CNC(=O)c2cccs2)C(C(=O)NCC2CCCO2)c2ccccc2)cc1` (stereo not given), with 19.1 µM (inactive).
With `Cc1ccc(-c2nnc3ccc(SCC(=O)N4CCCc5ccccc54)nn23)cc1`, the IC50 was 14 µM (inactive).
Then `COc1cccc(/C=N/NC(=O)c2ccncc2)c1OC(=O)c1ccc(Br)cc1`, with 28.3 µM (inactive); and `COc1ccc(-c2csc(NC(=O)c3cccc(N4C(=O)CCC4=O)c3)n2)cc1OC`, with 13.1 µM (inactive); and `Cc1ccc(C=NNc2nc3c([nH]2)c(=O)n(C)c(=O)n3C)cc1`, with 11 µM (inactive).
Take `CCCCNC(=O)c1cn(-c2ccc(OCC)cc2)c(=O)c2cc(OC)c(OC)cc12`: the IC50 is 39.2 µM (inactive).
`CCCc1cc(N2CCN(C(=O)c3ccco3)CC2)n2c(nc3ccccc32)c1C#N`: the IC50 is 26.3 µM (inactive).
Consider `O=C(NC1CCCCC1)C(c1ccc2ncccc2c1)N(Cc1cccs1)C(=O)c1cccs1` (stereo not given), for which the IC50 was 27.4 µM (inactive).
On to `CCn1nc(C(=O)Nc2nc(-c3ccccn3)cs2)c2ccccc2c1=O`, for which the IC50 was 6.65 µM.
Take `O=C(CSc1ccc2nnc(-c3ccc(F)cc3)n2n1)N1CCCc2ccccc21`: the IC50 is 16.8 µM (inactive).
To `COc1ccc(-n2c(/C=C/c3ccc(O)c(OC)c3)nc3ccccc3c2=O)cc1` belongs 8.14 µM; to `Cc1nn(-c2ccccc2)c(C)c1/C=N/NC(=O)c1cc(C(C)(C)C)[nH]n1`, 44.7 µM (inactive); to `Cc1ccc(NC(=O)c2nc[nH]c2C(=O)NCCCCCCNC(=O)c2[nH]cnc2C(=O)Nc2ccc(C)cc2)cc1`, 0.24 µM.
To `COc1ccc(OC)c(NC(=O)COC(=O)c2c3c(nc4ccccc24)CCCC3)c1` belongs 7.78 µM; to `COc1ccc(-n2nc(C(=O)NCC(=O)Nc3cc(OC)c(OC)c(OC)c3)c3ccccc3c2=O)cc1Cl`, 7.79 µM.
Turning to `NS(=O)(=O)c1ccc(CCNC(=O)c2ccc(C#CC3(O)CCCCC3)cc2)cc1`, the IC50 is 4.94 µM.
Consider `Cn1c(=O)c2[nH]c(NN=Cc3ccc(Br)cc3)nc2n(C)c1=O`, for which the IC50 was 10.6 µM (inactive).
Then `O=C(N/N=C\c1ccccn1)c1cccc(C(=O)N/N=C\c2ccccn2)n1`, with 10.2 µM (inactive); and `CCOC(=O)c1nn(-c2cccc(OC)c2)c2nc(Nc3ccccc3)cc(=O)n12`, with > 79 µM (inactive).
Then `CC(C)(C)OC(=O)N1CCC[C@H]1c1nnc(SCC(=O)Nc2ccc(Br)cc2)o1`, with 19.8 µM (inactive); and `CNC(=O)c1ccc(-c2sc3nc(N4CCOCC4)c4c(c3c2N)CCCC4)o1`, with > 79 µM (inactive); and `COc1ccc(-n2cc(-c3ccccc3)c3c(N4CCOCC4)ncnc32)cc1`, with 6.04 µM.
As to `N#Cc1c(-c2ccco2)cc(-c2ccccn2)nc1N`, the IC50 is 37.2 µM (inactive).
To `COC(=O)c1ccccc1NC(=O)/C=C/c1cc(OC)c(OC)c(OC)c1` belongs > 79 µM (inactive).
In the case of `Cc1c(O)ccc2c(-c3ccccc3)cc(=O)oc12`, the IC50 is 31.7 µM (inactive).
Then `Cn1c(=O)c2[nH]c(NN=Cc3cccc(Br)c3)nc2n(C)c1=O`, with 7.47 µM; and `CCOC(=O)c1cc2c(=O)n3ccccc3nc2n(Cc2ccco2)c1=NC(=O)c1cccnc1`, with 23 µM (inactive); and `Brc1ccc(-c2nn3c(-c4ccccn4)nnc3s2)o1`, with 42.3 µM (inactive).
Then `Cc1cc(NC(=O)c2cccs2)cc(-c2nc3ncccc3o2)c1O`, with > 79 µM (inactive); and `CC12C=CC(=O)CC1CCC1C2CCC2(C)C(O)C(O)CC12` (stereo not given), with 21 µM (inactive).
As to `COc1cccc(C(=O)Nc2cc(C)c3c(=O)oc4ccccc4c3n2)c1`, the IC50 was > 79 µM (inactive).
Then `COc1ccccc1NC(=O)COc1ccc(/C=N/NC(=O)c2cccnc2)cc1`, with 21.1 µM (inactive); and `CCN(CC)c1ccc(C2C(C(=O)OC(C)C)C(=O)CC(C)(O)C2C(=O)OC(C)C)cc1` (stereo not given), with 20.5 µM (inactive); and `COc1cc(-c2cnc3c(NC=O)cc(-c4cccnc4)cn23)cc(OC)c1OC`, with 36.2 µM (inactive).
To `COc1cccc(-c2cnc3c(NC=O)cc(-c4cccc(C(=O)N(C)C)c4)cn23)c1` belongs > 79 µM (inactive).
In the case of `COc1ccc2occ(C(=O)c3coc4ccc(O)c(CN(C)C)c34)c2c1`, the IC50 was 68 µM (inactive).
Then `CC1CN(c2nn3c(=O)c4ccccc4nc3c3ccccc23)CC(C)O1` (stereo not given), with > 79 µM (inactive); and `O=C1N[C@H](Cc2ccccc2)COC(=O)[C@@H](Cc2ccc(F)cc2)C/C=C\C[C@H]1CC(=O)N(CCO)Cc1ccccc1`, with 19.3 µM (inactive).
Then `COC(=O)c1cccc(Nc2nc(-c3cccnc3)nc3ccccc23)c1`, with 7.25 µM; and `Cc1nnc2ccc(-c3cccc(NC(=O)c4ccc(Cl)nc4)c3)nn12`, with 45.9 µM (inactive).
Then `CC(=O)Nc1ccc(S(=O)(=O)N(Cc2cccnc2)Cc2cc3ccccc3[nH]c2=O)cc1`, with 5.82 µM.
Consider `O=C(NCC1CCCO1)C(c1ccc(F)cc1)N(C(=O)Cn1nnc(-c2ccc(F)cc2)n1)c1cccc(O)c1` (stereo not given), for which the IC50 was 18.3 µM (inactive).
`Cc1cccc(NC(=O)c2nc[nH]c2C(=O)NCCCCCCNC(=O)c2[nH]cnc2C(=O)Nc2cccc(C)c2)c1`: the IC50 was > 79 µM (inactive).

A word on the IC50: it is the concentration that inhibits the measured activity by half.

The record behind these values is PubChem BioAssay AID602210 (Sanford-Burnham Center for Chemical Genomics, 2012).
